Data on 16 compounds can be found in ChEMBL document CHEMBL2016438, “Design and synthesis of naphthoquinone derivatives as antiproliferative agents and 20S proteasome inhibitors” (Bioorg Med Chem Lett, 2012).

As usually defined, the IC50 is the concentration that gives 50% inhibition. A low value points to greater potency.

Structures are written as SMILES. Active and inactive are the calls of the source. No cut-off for these calls is given here.

Assay [1] has as its system DU-145. The assay is described as follows: Antiproliferative activity against human DU145 cells. It counts as functional, cell-based.
Assay [2] deals with KB. The assay is described as follows: Antiproliferative activity against human KB cells. The format is functional, cell-based.
The nature of assay [3]: Antiproliferative activity against human KBVIN cells. It counts as functional, cell-based.
For a further assay, the system named is HeLa-GFP. The assay is described as follows: Inhibition of proteasome in human HeLa-GFP cells at 10 ug/ml.
The subject of assay [4] is A549. The assay is described as follows: Antiproliferative activity against human A549 cells. It counts as functional, cell-based.
A further assay relates to KBVIN. Nature of the assay: Antiproliferative activity against human KBVIN cells at 10 ug/ml. It counts as functional, cell-based.
For assay [5], the system named is DU-145. Nature of the assay: Antiproliferative activity against human DU145 cells at 10 ug/ml. It counts as functional, cell-based.
The test system of assay [6] is A549. Nature of the assay: Antiproliferative activity against human A549 cells at 10 ug/ml. It counts as functional, cell-based.
The subject of assay [7] is KB. The assay is described as follows: Antiproliferative activity against human KB cells at 10 ug/ml. The format is functional, cell-based.
Assay [8] in a line: Inhibition of chymotrypsin-like activity of human 20s proteasome.

Consider `O=C1C(Cl)=C(Nc2ccc(C(=O)N3CCOCC3)cc2)C(=O)c2ccccc21`, for which the IC50 was 13.7 µM in the assay with DU-145 [1], 14 µM in the assay on KB [2], 14.5 µM in assay [3] and 12.5 µM with A549 [4]. For the same compound, the inhibition entry in the assay on HeLa-GFP is “inactive”.

As for `O=C(NCCc1ccccc1)c1ccc(NC2=C(Cl)C(=O)c3ccccc3C2=O)cc1`, the inhibition entry with KBVIN, in the assay on DU-145 [5], in the assay on A549 [6] and in the assay on KB [7] was “inactive” throughout.

Take `O=C(Nc1ccccn1)c1ccc(NC2=C(Cl)C(=O)c3ccccc3C2=O)cc1`: the inhibition result in the assay on KBVIN, with DU-145 [5], in the assay with A549 [6] and with KB [7] was “inactive” throughout.

Regarding `O=C1C(Cl)=C(Nc2ccc(Oc3ccccc3)cc2)C(=O)c2ccccc21`, the IC50 with DU-145 [1] is 4.55 µM; in the assay with KB [2], 8.12 µM; in assay [3], 1.3 µM; in the assay with A549 [4] it was 2.9 µM. The inhibition result in the assay on HeLa-GFP was “inactive”.

`O=C1C(Cl)=C(Nc2ccc(N3CCOCC3)cc2)C(=O)c2ccccc21`: the IC50 amounted to 15.8 µM with DU-145 [1], 12.9 µM in the assay with KB [2], 14.2 µM in assay [3] and 18.8 µM with A549 [4]. Also, the inhibition result in the assay with HeLa-GFP was “inactive”.

For `O=C1C(Cl)=C(Nc2ccc3c(c2)OCO3)C(=O)c2ccccc21`, the inhibition result in the assay on KBVIN, in the assay with DU-145 [5], in the assay on A549 [6] and in the assay with KB [7] was “inactive” throughout.

As for `O=C1C(Cl)=C(NCCCN2CCCC2=O)C(=O)c2ccccc21`, the IC50 in the assay with DU-145 [1] was 18.1 µM; in the assay on KB [2], 16.2 µM; in assay [3], 19.1 µM; in the assay on A549 [4], 20.4 µM. The inhibition result in the assay with HeLa-GFP was “inactive”.

The compound `CC(=O)N[C@@H](CSC(=O)[C@]1([C@@H](O)C(C)C)NC(=O)[C@H](C)[C@@H]1O)C(=O)O` [LACTACYSTIN] had an IC50 in assay [8] of 10.1 µM. In other words, the double-digit micromolar range.

For `O=C1C(Cl)=C(Nc2ccc(S(=O)(=O)Nc3ccccn3)cc2)C(=O)c2ccccc21`, the 50% inhibitory concentration (IC50) in the assay on DU-145 [1] is 10.8 µM; in the assay with KB [2], 9.57 µM; in assay [3] it was 11.7 µM; in assay [8], 18.6 µM; with A549 [4], 12.2 µM. The inhibition entry in the assay on HeLa-GFP is “inactive”.

In the case of `O=C1C(Cl)=C(NCCc2cccs2)C(=O)c2ccccc21`, the inhibition entry with KBVIN, in the assay with DU-145 [5], in the assay on A549 [6] and in the assay with KB [7] was “inactive” in each case.

Turning to `O=C1C(Cl)=C(Nc2ccc([N+](=O)[O-])cc2)C(=O)c2ccccc21`, the IC50 was found to be 18.3 µM with DU-145 [1]; 16.6 µM in the assay with KB [2]; 18.3 µM in assay [3]; 3.65 µM in assay [8]; 23.2 µM with A549 [4]. In the assay with HeLa-GFP, the inhibition result was “Active”.

As to `O=C1C(Cl)=C(NCCN2CCOCC2)C(=O)c2ccccc21`, the inhibition result in the assay on KBVIN, with DU-145 [5], in the assay with A549 [6] and with KB [7] was “inactive” each time.

In the case of `COc1cc(NC(=O)c2ccc(NC3=C(Cl)C(=O)c4ccccc4C3=O)cc2)cc(OC)c1`, the IC50 in the assay with DU-145 [1] worked out at 10.5 µM; in the assay on KB [2], 10.4 µM; in [3], 11.3 µM; in the assay with A549 [4], 9.64 µM. In addition, the inhibition entry with HeLa-GFP is “inactive”.

On to `COc1ccc(C(=O)Nc2ccc(NC3=C(Cl)C(=O)c4ccccc4C3=O)cc2)cc1`, for which the inhibition entry in the assay with KBVIN, in the assay on DU-145 [5], in the assay on A549 [6] and in the assay with KB [7] was “inactive” in each case.

For `COc1ccc(CC(=O)Nc2ccc(NC3=C(Cl)C(=O)c4ccccc4C3=O)cc2)cc1`, the inhibition result in the assay with KBVIN, in the assay with DU-145 [5], in the assay on A549 [6] and in the assay on KB [7] was “inactive” in each case.

Regarding `O=C(Nc1ccc(NC2=C(Cl)C(=O)c3ccccc3C2=O)cc1)c1ccccn1`, the inhibition result in the assay on KBVIN, in the assay with DU-145 [5], with A549 [6] and in the assay on KB [7] was “inactive” in each case.
